{"source": "ChEMBL document CHEMBL4390686", "about": "“Design, Synthesis, and Pharmacokinetic Evaluation of Phosphate and Amino Acid Ester Prodrugs for Improving the Oral Bioavailability of the HIV-1 Protease Inhibitor Atazanavir” (J Med Chem, 2019)", "key": {"[1]": {"experiment": "Ratio of test compound to atazanavir aqueous solubility in pH 5 buffer by RP-UPLC analysis", "type": "physicochemical"}, "[2]": {"experiment": "Drug metabolism in cannulated Sprague-Dawley rat assessed as prodrug to atazanavir ratio at 6 mg/kg equiv of atazanavir administered orally by UPLC/MS/MS analysis", "type": "ADME, organism-based", "conditions": "in vivo, po"}, "[3]": {"experiment": "Tmax in cannulated Sprague-Dawley rat assessed as atazanavir level at 6 mg/kg equiv of atazanavir administered orally by UPLC/MS/MS analysis", "type": "ADME, organism-based", "conditions": "in vivo, po"}, "[4]": {"conditions": "rat, in vivo, po, 3 mg/kg"}, "[5]": {"molecular_target": "T1, UGT1A1 (Rattus norvegicus, UniProt Q64550)", "T1 sequence (Q64550 whole entry)": "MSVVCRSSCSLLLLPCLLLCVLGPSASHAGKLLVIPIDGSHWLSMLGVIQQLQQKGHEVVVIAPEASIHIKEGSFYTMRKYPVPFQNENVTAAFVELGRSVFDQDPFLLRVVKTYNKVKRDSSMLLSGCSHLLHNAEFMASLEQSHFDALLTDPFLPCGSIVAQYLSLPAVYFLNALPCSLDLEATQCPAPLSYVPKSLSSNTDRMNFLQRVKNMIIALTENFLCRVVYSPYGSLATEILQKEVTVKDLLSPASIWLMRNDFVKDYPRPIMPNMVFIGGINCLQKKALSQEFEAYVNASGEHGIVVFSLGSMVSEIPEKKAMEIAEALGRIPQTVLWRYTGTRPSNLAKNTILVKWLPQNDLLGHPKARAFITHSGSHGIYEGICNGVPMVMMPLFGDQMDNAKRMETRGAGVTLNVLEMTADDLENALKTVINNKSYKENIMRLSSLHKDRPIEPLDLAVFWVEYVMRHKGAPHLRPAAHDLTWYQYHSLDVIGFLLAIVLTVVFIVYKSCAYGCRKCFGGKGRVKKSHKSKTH", "experiment": "Ratio of test compound IC50 to atazanavir IC50 for recombinant rat UGT1A1", "type": "ADME", "conditions": "read-out: Ratio IC50"}, "[6]": {"experiment": "Prodrug conversion in rat hepatocytes assessed as pseudo first order rate constant for atazanavir formation at 1 uM in presence of esterase inhibitor PMSF/CYP450 inhibitor ABT", "type": "ADME, cell-based, Hepatocyte"}, "[7]": {"experiment": "Drug recovery in intestinal homogenates of closed loop rat intestinal model at 1 mg/kg administered as cassette dose by LC/MS analysis", "type": "ADME, organism-based, Intestine", "conditions": "intestinal homogenate, other: closed loop intestinal model, read-out: Drug recovery"}, "[8]": {"molecular_target": "T2, UGT1A1 (Homo sapiens, UniProt P22309)", "T2 sequence (P22309 whole entry)": "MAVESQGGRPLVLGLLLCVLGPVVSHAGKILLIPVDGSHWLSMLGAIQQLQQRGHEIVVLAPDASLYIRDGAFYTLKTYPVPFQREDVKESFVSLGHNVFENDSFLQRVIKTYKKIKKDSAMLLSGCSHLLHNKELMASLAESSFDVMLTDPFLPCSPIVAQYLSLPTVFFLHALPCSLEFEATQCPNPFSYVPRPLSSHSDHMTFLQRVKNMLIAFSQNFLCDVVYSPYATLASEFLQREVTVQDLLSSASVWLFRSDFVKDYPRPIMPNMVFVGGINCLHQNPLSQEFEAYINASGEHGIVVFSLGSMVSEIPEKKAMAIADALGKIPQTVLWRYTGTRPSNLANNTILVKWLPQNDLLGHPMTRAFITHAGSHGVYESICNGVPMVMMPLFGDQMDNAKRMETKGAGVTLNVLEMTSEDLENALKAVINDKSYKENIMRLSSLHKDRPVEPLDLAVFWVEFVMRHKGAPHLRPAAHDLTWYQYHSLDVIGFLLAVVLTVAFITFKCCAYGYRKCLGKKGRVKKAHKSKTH", "experiment": "Ratio of test compound IC50 to atazanavir IC50 for recombinant human UGT1A1", "type": "ADME", "conditions": "read-out: Ratio IC50"}, "[9]": {"experiment": "Drug recovery in intestinal content of closed loop rat intestinal model at 1 mg/kg administered as cassette dose by LC/MS analysis", "type": "ADME, organism-based", "conditions": "in vivo"}, "[10]": {"experiment": "in vitro", "conditions": "human, Caco-2", "description": "Apparent permeability across basolateral to apical side in human Caco2 cells at 2 uM"}, "[11]": {"experiment": "Aqueous solubility of the compound in FeSSIF by RP-HPLC analysis", "type": "physicochemical"}, "[12]": {"molecular_target": "T3, UDP-glucuronosyltransferase 1A1 (Rattus norvegicus, UniProt Q64550)", "T3 sequence (Q64550 whole entry)": "T1 sequence (Q64550 whole entry)", "experiment": "Inhibition of recombinant rat UGT1A1 using beta-estradiol as substrate preincubated for 5 mins followed by substrate addition and measured after 40 mins by LC-MS/MS analysis", "type": "ADME"}, "[13]": {"experiment": "physchem", "conditions": "phosphate buffer, pH 7.4", "description": "Aqueous solubility of the compound in pH 7.4 phosphate buffer by RP-UPLC analysis"}, "[14]": {"experiment": "Prodrug conversion in rat hepatocytes assessed as pseudo first order rate constant for atazanavir formation at 1 uM in presence of CYP450 inhibitor ABT", "type": "ADME, cell-based, Hepatocyte"}, "[15]": {"experiment": "in vitro", "conditions": "human, Caco-2", "remark": "listed apart in the source", "description": "Efflux ratio of apparent permeability across basolateral to apical side over apical to basolateral side in human Caco2 cells"}, "[16]": {"experiment": "Ratio of test compound to atazanavir aqueous solubility in pH 4 citrate buffer by RP-UPLC analysis", "type": "physicochemical"}, "[17]": {"experiment": "Stability in simulated gastric fluid assessed as porcine pepsin-mediated compound hydrolysis at 1 mL measured up to 1 hr at pH 1.2 by HPLC analysis", "type": "ADME, Sus scrofa", "conditions": "pig, isolated protein, pH 1.2, 1 h"}, "[18]": {"experiment": "AUClast in cannulated Sprague-Dawley rat assessed as atazanavir level at 30 mg/kg equiv of atazanavir administered orally by UPLC/MS/MS analysis", "type": "ADME, organism-based", "design": "dose 30 mg/kg, route oral, time 0 - last", "conditions": "in vivo, po"}, "[19]": {"experiment": "physchem", "conditions": "30% CH3CN/acetate buffer, pH 4", "description": "Half life in pH 4 30%CH3CN/acetate buffer at 50 mM by RP-UPLC analysis"}, "[20]": {"molecular_target": "T3, UDP-glucuronosyltransferase 1A1", "experiment": "Inhibition of UGT1A1 in rat liver microsomes using beta-estradiol as substrate preincubated for 5 mins followed by substrate addition and measured after 40 mins by LC-MS/MS analysis", "type": "ADME"}, "[21]": {"experiment": "Tmax in cannulated Sprague-Dawley rat assessed as atazanavir level at 30 mg/kg equiv of atazanavir administered orally by UPLC/MS/MS analysis", "type": "ADME, organism-based", "conditions": "in vivo, po"}, "[22]": {"experiment": "Drug recovery in mesenteric vein plasma of closed loop rat intestinal model at 1 mg/kg administered as cassette dose by LC/MS analysis", "type": "ADME, organism-based", "conditions": "in vivo"}, "[23]": {"experiment": "Elimination half life in rat hepatocytes at 1 uM in absence of esterase inhibitor PMSF/CYP450 inhibitor ABT", "type": "ADME, cell-based, Hepatocyte", "conditions": "read-out: beta t1/2"}, "[24]": {"experiment": "Total AUC in cannulated Sprague-Dawley rat assessed as atazanavir level at 6 mg/kg equiv of atazanavir administered orally by UPLC/MS/MS analysis relative to atazanavir alone", "type": "ADME, organism-based", "conditions": "in vivo, po"}, "[25]": {"experiment": "Ratio of test compound to atazanavir aqueous solubility in pH 6.5 phosphate buffer by RP-UPLC analysis", "type": "physicochemical"}, "[26]": {"experiment": "physchem", "conditions": "30% CH3CN/phosphate buffer, pH 6.5", "description": "Half life in pH 6.5 30%CH3CN/phosphate buffer at 50 mM by RP-UPLC analysis"}, "[27]": {"experiment": "Prodrug conversion in rat hepatocytes assessed as pseudo first order rate constant for atazanavir formation at 1 uM in presence of esterase inhibitor PMSF", "type": "ADME, cell-based, Hepatocyte"}, "[28]": {"experiment": "Cmin in cannulated Sprague-Dawley rat assessed as atazanavir level at 30 mg/kg equiv of atazanavir administered orally measured after 24 hrs by UPLC/MS/MS analysis", "type": "ADME, organism-based", "conditions": "in vivo, po, read-out: Cmin"}, "[29]": {"experiment": "Elimination half life in rat hepatocytes at 1 uM in presence of CYP450 inhibitor ABT", "type": "ADME, cell-based, Hepatocyte", "conditions": "with ABT (CYP450 inhibitor), read-out: beta t1/2"}, "[30]": {"experiment": "physchem", "conditions": "phosphate buffer, pH 6.5", "description": "Aqueous solubility of the compound in pH 6.5 phosphate buffer by RP-UPLC analysis"}}}
{"smiles": "COC(=O)N[C@H](C(=O)N[C@@H](Cc1ccccc1)[C@H](CN(Cc1ccc(-c2ccccn2)cc1)NC(=O)[C@@H](NC(=O)OC)C(C)(C)C)OC(=O)[C@@H](N)Cc1ccccc1)C(C)(C)C", "values": [{"measurement": "Ratio", "setting": "[1]", "value": 1300}, {"measurement": "Ratio", "setting": "[2]", "value": 0.7}, {"measurement": "Tmax", "setting": "[3]", "value": 30, "unit": "min"}, {"measurement": "Cmax", "setting": "[4]", "value": 456, "unit": "nM"}, {"measurement": "selectivity ratio", "setting": "[5]", "value": 3}, {"measurement": "K", "setting": "[6]", "value": 0.0014, "unit": "min⁻¹"}, {"measurement": "recovery", "setting": "[7]", "value": 5.6, "unit": "%"}, {"measurement": "selectivity ratio", "setting": "[8]", "value": 9.3}, {"measurement": "Drug recovery", "setting": "[9]", "value": 32, "unit": "%"}, {"measurement": "Papp B→A at 2 µM", "setting": "[10]", "value": 13.1, "unit": "×10⁻⁶ cm/s"}, {"measurement": "solubility", "setting": "[11]", "value": "> 500", "unit": "µg/mL"}, {"measurement": "IC50", "setting": "[12]", "value": 12.6, "unit": "µM"}, {"measurement": "solubility", "setting": "[13]", "value": 1, "unit": "µg/mL"}, {"measurement": "K", "setting": "[14]", "value": 0.0042, "unit": "min⁻¹"}, {"measurement": "efflux ratio", "setting": "[15]", "value": "> 8.7"}, {"measurement": "Ratio", "setting": "[16]", "value": 1100}, {"measurement": "Stability", "setting": "[17]", "value": "Stable"}, {"measurement": "AUClast", "setting": "[18]", "value": 19.67, "unit": "µM·h"}, {"measurement": "half-life at 50000 µM", "setting": "[19]", "value": "> 20.8", "unit": "days"}, {"measurement": "IC50", "setting": "[20]", "value": 19.5, "unit": "µM"}, {"measurement": "Tmax", "setting": "[21]", "value": 48, "unit": "min"}, {"measurement": "Drug recovery", "setting": "[22]", "value": 2.8, "unit": "%"}, {"measurement": "half-life at 1 µM", "setting": "[23]", "value": 42, "unit": "min"}, {"measurement": "fold change (FC)", "setting": "[24]", "value": 4.1}, {"measurement": "Ratio", "setting": "[25]", "value": 27}, {"measurement": "half-life at 50000 µM", "setting": "[26]", "value": "> 20.8", "unit": "days"}, {"measurement": "K", "setting": "[27]", "value": 0.0009, "unit": "min⁻¹"}, {"measurement": "concentration", "setting": "[28]", "value": 1, "unit": "nM"}, {"measurement": "half-life at 1 µM", "setting": "[29]", "value": "> 120", "unit": "min"}, {"measurement": "solubility", "setting": "[30]", "value": 27, "unit": "µg/mL"}]}
